According to ChEMBL document CHEMBL4265937, “Branched pentapeptides as potent inhibitors of the vascular endothelial growth factor 165 binding to Neuropilin-1: Design, synthesis and biological activity” (Eur J Med Chem, 2018):
Non-standard residues stand in square brackets, D forms with d. Residues, ends and D or L forms follow the SMILES beside them. *: point of attachment. X1 = N=C(N)NCCCCCCCCCCC(=O)*; X2 = N=C(N)NCCCCCCC(=O)*; Dab = NCC[C@H](N)C(=O)O

Experiments:
[1] = target: Neuropilin-1 (Rattus norvegicus) (UniProt Q9QWJ9); experiment: Inhibition of biotinylated VEGF-A165 binding to rat NRP1/FC chimera at 1 uM after 40 mins by ELISA relative to control
[2] = target: Neuropilin-1 (Rattus norvegicus) (UniProt Q9QWJ9); experiment: Inhibition of biotinylated VEGF-A165 binding to rat NRP1/FC chimera at 0.3 uM after 40 mins by ELISA relative to control
Neuropilin-1 [3] = target: Neuropilin-1 (Homo sapiens, UniProt O14786); experiment: Inhibition of biotinylated VEGF165 binding to NRP1 (unknown origin) by ELISA
Chain of Neuropilin-1 (Homo sapiens, UniProt O14786) (O14786 whole entry): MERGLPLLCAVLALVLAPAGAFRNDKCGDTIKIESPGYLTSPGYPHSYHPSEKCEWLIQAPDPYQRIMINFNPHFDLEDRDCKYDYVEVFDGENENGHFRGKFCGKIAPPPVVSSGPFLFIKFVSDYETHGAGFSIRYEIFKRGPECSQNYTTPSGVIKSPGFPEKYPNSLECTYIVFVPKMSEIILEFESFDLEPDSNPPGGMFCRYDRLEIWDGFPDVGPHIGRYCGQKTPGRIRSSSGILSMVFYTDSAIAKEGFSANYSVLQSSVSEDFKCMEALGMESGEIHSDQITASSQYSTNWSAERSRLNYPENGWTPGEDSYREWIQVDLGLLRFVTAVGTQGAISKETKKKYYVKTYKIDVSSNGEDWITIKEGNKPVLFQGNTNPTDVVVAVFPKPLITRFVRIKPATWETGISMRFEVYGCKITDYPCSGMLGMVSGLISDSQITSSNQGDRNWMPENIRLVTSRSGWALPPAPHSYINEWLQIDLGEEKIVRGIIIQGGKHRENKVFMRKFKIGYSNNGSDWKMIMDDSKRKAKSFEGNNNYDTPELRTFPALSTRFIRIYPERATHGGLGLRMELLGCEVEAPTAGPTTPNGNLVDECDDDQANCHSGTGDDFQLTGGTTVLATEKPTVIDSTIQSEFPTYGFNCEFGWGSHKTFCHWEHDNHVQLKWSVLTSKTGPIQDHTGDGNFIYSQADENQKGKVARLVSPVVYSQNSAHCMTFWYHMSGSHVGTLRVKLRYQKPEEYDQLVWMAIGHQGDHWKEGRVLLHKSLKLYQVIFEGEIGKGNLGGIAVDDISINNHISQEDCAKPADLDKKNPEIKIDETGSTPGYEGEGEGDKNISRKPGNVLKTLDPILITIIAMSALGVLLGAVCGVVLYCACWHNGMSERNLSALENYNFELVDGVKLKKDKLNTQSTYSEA

[4] = target: Neuropilin-1 (Rattus norvegicus) (UniProt Q9QWJ9); experiment: Inhibition of biotinylated VEGF-A165 binding to rat NRP1/FC chimera at 10 uM after 40 mins by ELISA relative to control
[5] = Half life in human plasma at 0.9 umol/ml by LC-MS analysis; assay type: ADME, cell-free
Neuropilin-1 [6] = target: Neuropilin-1 (Rattus norvegicus, UniProt Q9QWJ9); experiment: Inhibition of biotinylated VEGF-A165 binding to rat NRP1/FC chimera after 40 mins by ELISA

Structure (SMILES)	inhibition [1] [%]	inhibition [2] [%]	other results
N=C(N)NCCC[C@H](NC(=O)[C@H](CCCN)NC(=O)[C@@H]1CCCN1C(=O)[C@@H](N)CCCCNC(=O)C(N)CCCCN=C(N)N)C(=O)O (stereo partly drawn) (HELM PEPTIDE1{K.P.[Orn].R}|PEPTIDE2{[N=C(N)NCCCCC(N)C(=O)[*:2]]}$PEPTIDE1,PEPTIDE2,1:R3-1:R2$$$V2.0)	17.8	11.1	
N=C(N)NCCCCCCCCCCC(=O)NCCCC[C@H](N)C(=O)N1CCC[C@H]1C(=O)N[C@@H](CCN)C(=O)N[C@@H](CCCNC(=N)N)C(=O)O (H-K(X1)P[Dab]R-OH)	35.5	12.1	
N=C(N)NCCC[C@H](NC(=O)[C@@H]1CCCN1C(=O)[C@@H]1CCCN1C(=O)[C@@H](N)CCCCN)C(=O)O (H-KPPR-OH)	15.4	10.1	IC50 (Neuropilin-1 [3]): 4600 nM
C[C@H](NC(=O)[C@H](CN)NC(=O)[C@@H](N)CCCCNC(=O)C(N)CCCCN=C(N)N)C(=O)N[C@@H](CCCNC(=N)N)C(=O)O (stereo partly drawn) (HELM PEPTIDE1{K.[NC[C@H](N[*:1])C(=O)[*:2]].A.R}|PEPTIDE2{[N=C(N)NCCCCC(N)C(=O)[*:2]]}$PEPTIDE1,PEPTIDE2,1:R3-1:R2$$$V2.0)	25	14.1	
N=C(N)NCCC[C@H](NC(=O)[C@@H]1CCCN1C(=O)[C@@H](N)CCCCNC(=O)C(N)CCCCN=C(N)N)C(=O)O (stereo partly drawn) (HELM PEPTIDE1{K.P.R}|PEPTIDE2{[N=C(N)NCCCCC(N)C(=O)[*:2]]}$PEPTIDE1,PEPTIDE2,1:R3-1:R2$$$V2.0)			inhibition [4]: 47.8%
C[C@H](NC(=O)[C@H](C)NC(=O)[C@@H](N)CCCCNC(=O)C(N)CCCCN=C(N)N)C(=O)N[C@@H](CCCNC(=N)N)C(=O)O (stereo partly drawn) (HELM PEPTIDE1{K.A.A.R}|PEPTIDE2{[N=C(N)NCCCCC(N)C(=O)[*:2]]}$PEPTIDE1,PEPTIDE2,1:R3-1:R2$$$V2.0)	48.9	16.9	
N=C(N)NCCC[C@H](NC(=O)[C@H](CCN)NC(=O)[C@@H]1CCCN1C(=O)[C@@H](N)CCNC(=O)C(N)CCCCN=C(N)N)C(=O)O (stereo partly drawn) (HELM PEPTIDE1{[Dab].P.[Dab].R}|PEPTIDE2{[N=C(N)NCCCCC(N)C(=O)[*:2]]}$PEPTIDE1,PEPTIDE2,1:R3-1:R2$$$V2.0)	41.4	5.7	
N=C(N)NCCC[C@H](NC(=O)[C@H](CCN)NC(=O)[C@@H]1CCCN1C(=O)[C@@H](N)CCCCNC(=O)C(N)CCCCN=C(N)N)C(=O)O (stereo partly drawn) (HELM PEPTIDE1{K.P.[Dab].R}|PEPTIDE2{[N=C(N)NCCCCC(N)C(=O)[*:2]]}$PEPTIDE1,PEPTIDE2,1:R3-1:R2$$$V2.0)	82.6	62.2	half-life at 900 µM [5]: 44 min; IC50 (Neuropilin-1 [6]; read-out: IC50): 200 nM; IC50 (Neuropilin-1 [6]; read-out: pIC50 (converted)): 240 nM
N=C(N)NCCC[C@H](NC(=O)[C@@H]1CCCN1C(=O)[C@H](CCCN)NC(=O)[C@@H](N)CCCCNC(=O)C(N)CCCCN=C(N)N)C(=O)O (stereo partly drawn) (HELM PEPTIDE1{K.[Orn].P.R}|PEPTIDE2{[N=C(N)NCCCCC(N)C(=O)[*:2]]}$PEPTIDE1,PEPTIDE2,1:R3-1:R2$$$V2.0)	38	10.4	
C[C@H](NC(=O)[C@@H]1CCCN1C(=O)[C@@H](N)CCCCNC(=O)C(N)CCCCN=C(N)N)C(=O)N[C@@H](CCCNC(=N)N)C(=O)O (stereo partly drawn) (HELM PEPTIDE1{K.P.A.R}|PEPTIDE2{[N=C(N)NCCCCC(N)C(=O)[*:2]]}$PEPTIDE1,PEPTIDE2,1:R3-1:R2$$$V2.0)	77.5	54.2	half-life at 900 µM [5]: 39 min; IC50 (Neuropilin-1 [6]; read-out: IC50): 300 nM
N=C(N)NCCCCCCC(=O)NCCCC[C@H](N)C(=O)N1CCC[C@H]1C(=O)N[C@@H](CCN)C(=O)N[C@@H](CCCNC(=N)N)C(=O)O (H-K(X2)P[Dab]R-OH)	44.7	25.5	
N=C(N)NCCC[C@H](NC(=O)[C@@H]1CCCN1C(=O)[C@H](CCCCN)NC(=O)[C@@H](N)CCCCNC(=O)C(N)CCCCN=C(N)N)C(=O)O (stereo partly drawn) (HELM PEPTIDE1{K.K.P.R}|PEPTIDE2{[N=C(N)NCCCCC(N)C(=O)[*:2]]}$PEPTIDE1,PEPTIDE2,1:R3-1:R2$$$V2.0)	22.1		
N=C(N)NCCCC(N)C(=O)NCCC[C@H](N)C(=O)N1CCC[C@H]1C(=O)N[C@@H](CCN)C(=O)N[C@@H](CCCNC(=N)N)C(=O)O (stereo partly drawn) (HELM PEPTIDE1{[Orn].P.[Dab].R}|PEPTIDE2{[N=C(N)NCCCC(N)C(=O)[*:2]]}$PEPTIDE1,PEPTIDE2,1:R3-1:R2$$$V2.0)	40.3	2.8	
N=C(N)NCCCC(N)C(=O)NCCCC[C@H](N)C(=O)N1CCC[C@H]1C(=O)N[C@@H](CCN)C(=O)N[C@@H](CCCNC(=N)N)C(=O)O (stereo partly drawn) (HELM PEPTIDE1{K.P.[Dab].R}|PEPTIDE2{[N=C(N)NCCCC(N)C(=O)[*:2]]}$PEPTIDE1,PEPTIDE2,1:R3-1:R2$$$V2.0)	39.9	8	
N=C(N)NCCC[C@H](NC(=O)[C@H](CCCCN)NC(=O)[C@@H]1CCCN1C(=O)[C@@H](N)CCCCNC(=O)C(N)CCCCN=C(N)N)C(=O)O (stereo partly drawn) (HELM PEPTIDE1{K.P.K.R}|PEPTIDE2{[N=C(N)NCCCCC(N)C(=O)[*:2]]}$PEPTIDE1,PEPTIDE2,1:R3-1:R2$$$V2.0)	22.4	20.6	
N=C(N)NCCC[C@H](NC(=O)[C@@H]1CCCN1C(=O)[C@@H]1CCCN1C(=O)[C@@H](N)CCCCNC(=O)C(N)CCCCN=C(N)N)C(=O)O (stereo partly drawn) (HELM PEPTIDE1{K.P.P.R}|PEPTIDE2{[N=C(N)NCCCCC(N)C(=O)[*:2]]}$PEPTIDE1,PEPTIDE2,1:R3-1:R2$$$V2.0)	41.4	4.7	IC50 (Neuropilin-1 [6]; read-out: IC50): 1000 nM
N=C(N)NCCC[C@H](NC(=O)[C@H](CCN)NC(=O)[C@@H]1CCCN1C(=O)[C@@H](N)CCCCNC(=O)C(N)CCNC(=N)N)C(=O)O (stereo partly drawn) (HELM PEPTIDE1{K.P.[Dab].R}|PEPTIDE2{[N=C(N)NCCC(N)C(=O)[*:2]]}$PEPTIDE1,PEPTIDE2,1:R3-1:R2$$$V2.0)	28	5.7	
C[C@H](NC(=O)[C@@H](N)CCCCNC(=O)C(N)CCCCN=C(N)N)C(=O)N1CCC[C@H]1C(=O)N[C@@H](CCCNC(=N)N)C(=O)O (stereo partly drawn) (HELM PEPTIDE1{K.A.P.R}|PEPTIDE2{[N=C(N)NCCCCC(N)C(=O)[*:2]]}$PEPTIDE1,PEPTIDE2,1:R3-1:R2$$$V2.0)	20	3.9	
N=C(N)NCCC[C@H](NC(=O)[C@H](CN)NC(=O)[C@@H]1CCCN1C(=O)[C@@H](N)CCCCNC(=O)C(N)CCCCN=C(N)N)C(=O)O (stereo partly drawn) (HELM PEPTIDE1{K.P.[NC[C@H](N[*:1])C(=O)[*:2]].R}|PEPTIDE2{[N=C(N)NCCCCC(N)C(=O)[*:2]]}$PEPTIDE1,PEPTIDE2,1:R3-1:R2$$$V2.0)	23.6	18.4	
C[C@H](NC(=O)[C@H](CCCN)NC(=O)[C@@H](N)CCCCNC(=O)C(N)CCCCN=C(N)N)C(=O)N[C@@H](CCCNC(=N)N)C(=O)O (stereo partly drawn) (HELM PEPTIDE1{K.[Orn].A.R}|PEPTIDE2{[N=C(N)NCCCCC(N)C(=O)[*:2]]}$PEPTIDE1,PEPTIDE2,1:R3-1:R2$$$V2.0)	15.6		
C[C@H](NC(=O)[C@H](CCCCN)NC(=O)[C@@H](N)CCCCNC(=O)C(N)CCCCN=C(N)N)C(=O)N[C@@H](CCCNC(=N)N)C(=O)O (stereo partly drawn) (HELM PEPTIDE1{K.K.A.R}|PEPTIDE2{[N=C(N)NCCCCC(N)C(=O)[*:2]]}$PEPTIDE1,PEPTIDE2,1:R3-1:R2$$$V2.0)	22.2		
N=C(N)NCCC[C@H](NC(=O)[C@@H]1CCCN1C(=O)C(CCN)NC(=O)[C@@H](N)CCCCN=C(N)N)C(=O)O (stereo partly drawn) (HELM PEPTIDE1{[N=C(N)NCCCC[C@H](N)C(=O)[*:2]].[NCCC(N[*:1])C(=O)[*:2]].P.R}$$$$V2.0)			IC50 (Neuropilin-1 [3]): 800 nM
N=C(N)NCCC[C@H](NC(=O)[C@H](CCN)NC(=O)[C@@H]1CCCN1C(=O)[C@@H](N)CCCNC(=O)C(N)CCCCN=C(N)N)C(=O)O (stereo partly drawn) (HELM PEPTIDE1{[Orn].P.[Dab].R}|PEPTIDE2{[N=C(N)NCCCCC(N)C(=O)[*:2]]}$PEPTIDE1,PEPTIDE2,1:R3-1:R2$$$V2.0)	36.3	17	
N=C(N)NCCC[C@H](NC(=O)[C@@H]1CCCN1C(=O)[C@H](CN)NC(=O)[C@@H](N)CCCCNC(=O)C(N)CCCCN=C(N)N)C(=O)O (stereo partly drawn) (HELM PEPTIDE1{K.[NC[C@H](N[*:1])C(=O)[*:2]].P.R}|PEPTIDE2{[N=C(N)NCCCCC(N)C(=O)[*:2]]}$PEPTIDE1,PEPTIDE2,1:R3-1:R2$$$V2.0)	82	59.4	half-life at 900 µM [5]: 2040 min; IC50 (Neuropilin-1 [6]; read-out: IC50): 200 nM
N=C(N)NCCC[C@H](NC(=O)[C@@H]1CCCN1C(=O)[C@H](CCN)NC(=O)[C@@H](N)CCCCNC(=O)C(N)CCCCN=C(N)N)C(=O)O (stereo partly drawn) (HELM PEPTIDE1{K.[Dab].P.R}|PEPTIDE2{[N=C(N)NCCCCC(N)C(=O)[*:2]]}$PEPTIDE1,PEPTIDE2,1:R3-1:R2$$$V2.0)	83.7	59.6	half-life at 900 µM [5]: 2460 min; IC50 (Neuropilin-1 [6]; read-out: IC50): 200 nM
C[C@H](NC(=O)[C@H](CCN)NC(=O)[C@@H](N)CCCCNC(=O)C(N)CCCCN=C(N)N)C(=O)N[C@@H](CCCNC(=N)N)C(=O)O (stereo partly drawn) (HELM PEPTIDE1{K.[Dab].A.R}|PEPTIDE2{[N=C(N)NCCCCC(N)C(=O)[*:2]]}$PEPTIDE1,PEPTIDE2,1:R3-1:R2$$$V2.0)	47.3	16.1	
